Data reported in the kinase profiling compilation of Christmann-Franck et al. (2016).

Molecular target: SGK1 (human) (UniProt O00141)
Assay: Flashplate

SGK1 (human), sequence (O00141 whole entry, looked up): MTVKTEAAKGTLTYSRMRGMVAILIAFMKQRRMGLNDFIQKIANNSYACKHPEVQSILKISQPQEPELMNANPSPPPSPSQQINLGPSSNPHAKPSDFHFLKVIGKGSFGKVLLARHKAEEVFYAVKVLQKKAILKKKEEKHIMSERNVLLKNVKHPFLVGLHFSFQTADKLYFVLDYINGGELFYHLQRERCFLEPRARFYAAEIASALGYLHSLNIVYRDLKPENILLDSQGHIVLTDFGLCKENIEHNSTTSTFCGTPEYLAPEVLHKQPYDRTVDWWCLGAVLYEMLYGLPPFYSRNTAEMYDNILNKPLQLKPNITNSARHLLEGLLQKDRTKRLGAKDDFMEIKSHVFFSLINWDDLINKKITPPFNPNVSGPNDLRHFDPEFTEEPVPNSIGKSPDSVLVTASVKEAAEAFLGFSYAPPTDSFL

SMILES	Ki
CN(C)C(=O)c1c(-c2ccc3[nH]ncc3c2)nnn1Cc1ccccc1	2 µM
COc1cccc(NC(=O)c2cnn3c(-c4ccccc4)ccnc23)c1	> 10 µM
Nc1ncc(-c2cnn(CCO)c2)c2scc(-c3ccc(NC(=O)Nc4cccc(F)c4)cc3)c12	2.51 µM
CC(C)=C(C)c1cccc2c(CCCOc3cccc(Cl)c3Cl)c(C(=O)O)[nH]c12	> 10 µM
NC(=O)Cn1cc(-c2cc(-c3cc4ccccc4s3)c3[nH]ncc3c2)c2nc(N)ncc21	> 10 µM
OCC(CO)Nc1ncnc2[nH]cc(-c3ccccc3)c12	7.94 µM
FC(F)(F)c1ccc(Cn2cc(-c3ccc4[nH]ncc4c3)nn2)c(C(F)(F)F)c1	> 10 µM
O=C(Nc1cnc2[nH]cc(-c3ccccc3)c2c1)c1ccc(Cl)cc1	5.01 µM
CCN(CC)CC#Cc1cnc(N)c2c(-c3ccc(NC(=O)Nc4cccc(C)c4)cc3)csc12	> 10 µM
C(=N\Nc1nc2ccccc2[nH]1)/c1c[nH]c2ccccc12	> 10 µM
Nc1c(-c2ccccc2)c2cc(Cl)ccc2[nH]c1=O	> 10 µM
Nc1ncnc2c1N=C(c1ccc(NC(=O)Nc3cc(C(F)(F)F)ccc3F)cc1)CCN2	2.51 µM
CNC1CCN(c2nc3[nH]cc(C(=O)O)c(=O)c3c(C)c2Br)C1 (stereo unspecified)	> 10 µM
O=C(N[C@H](CO)c1ccccc1)c1ccc(-c2ccncc2)cc1	1.58 µM
NCCCNS(=O)(=O)c1cccc(C(=O)Nc2ccc(-c3n[nH]c(=O)c4ccccc34)cc2)c1	> 10 µM
CC(C)S(=O)(=O)n1c(N)nc2ccc(-c3c(-c4ccc(F)cc4)nc4sccn34)cc21	> 10 µM
CCCCn1c(NC(=O)c2cccc(C#N)c2)nc2cc(N(C)C(=O)C3CCCCC3)ccc21	> 10 µM
Cc1cc(Nc2cc(N3CCN(C)CC3)nc(/C=C/c3ccccc3)n2)n[nH]1	> 10 µM
Cc1cccc(NC(=O)Nc2ccc(NC(=O)c3csc4ncnc(N)c34)cc2)c1	6.31 µM
C#Cc1cc2c(cc1OC)-c1[nH]nc(-c3ccc(C#N)nc3)c1C2	> 10 µM
Cc1cccc(NC(=O)Nc2ccc(-c3cccc4c3CNC4=O)cc2C)c1	> 10 µM

SMILES	Ki
Cc1n[nH]c2sc(C(=O)NCCc3ccc(Cl)cc3)cc12	3.98 µM
C/C(=N/NC(=N)N)c1cc(NC(=O)NCCCCCCNC(=O)Nc2cc(/C(C)=N\NC(=N)N)cc(/C(C)=N/NC(=N)N)c2)cc(/C(C)=N/NC(=N)N)c1	3.16 µM
Cc1cnc(-c2cnc(NCCNc3ccc(C#N)cn3)nc2-c2ccc(Cl)cc2Cl)[nH]1	> 10 µM
CCOC(=O)C1=c2s/c(=C/c3ccco3)c(=O)n2C(N)=C(C#N)C1c1ccco1 (stereo unspecified)	> 10 µM
Fc1ccc(-c2nc(-c3ccc(F)cc3)c(-c3ccncc3)[nH]2)cc1	> 10 µM
Brc1cnc2[nH]cc(-c3ccccc3)c2c1	1.58 µM
Cc1cn2c(-c3ccnc(NCC(C)(C)CO)n3)c(-c3ccc(F)cc3F)nc2c(C)n1	> 10 µM
COc1ccc(CNc2c(Nc3ccncc3)c(=O)c2=O)c(OC)c1	> 10 µM
COc1cc(/C=C2/SC(=S)NC2=O)ccc1O	3.16 µM
CN1CCC(NC(=O)c2cc3c(-c4ccccc4)n[nH]c3s2)CC1	6.31 µM
CCOC(=O)C1=C(N)n2c(s/c(=C\c3cccs3)c2=O)=C(C(N)=O)C1c1cccs1 (stereo unspecified)	> 10 µM
COc1cc(Nc2ncc3c(n2)-c2ccc(Cl)cc2C(c2c(F)cccc2OC)=NC3)ccc1C(=O)O	> 10 µM
Cc1nccn2c(-c3ccnc(NCC(C)(C)O)n3)c(-c3ccc(F)cc3F)nc12	> 10 µM
O=C1Cc2c([nH]c3ccc(Br)cc23)-c2ccccc2N1	> 10 µM
O=S(=O)(c1cccc2cnccc12)N1CCCNCC1	6.31 µM
c1cc2[nH]ncc2cc1-c1cn(CC2CCOCC2)nn1	7.94 µM
COc1ccc(C(=O)Nc2n[nH]c3ccc(-c4cn(Cc5ccccc5)nn4)cc23)cc1OC	1 µM
O[C@H]1CC[C@H](Nc2nc(Cl)cc(-c3c[nH]c4ncccc34)n2)CC1	0.158 µM
NCC1CCC(CNc2nc(NCc3ccccc3Cl)ncc2[N+](=O)[O-])CC1 (stereo unspecified)	5.01 µM
Cn1c2ccccc2c2c3c(c4c5ccccc5n(CCC#N)c4c21)CNC3=O	> 10 µM

The remaining lines, values ahead:

Ki	SMILES
0.794 µM	O=c1c(NCc2ccccc2F)c(Nc2ccncc2)c1=O
> 10 µM	COc1ccc(NC(=O)Nc2ccc(-c3cccc4onc(N)c34)cc2)cc1Cl
> 10 µM	CNC(=O)/C=C/c1cnc(N)c2c(-c3ccc4sc(C)nc4c3)csc12
> 10 µM	NC(=O)C1CCCN(C(=O)c2cc(-c3ccc4[nH]ncc4c3)on2)C1 (stereo unspecified)
6.31 µM	CSc1ccccc1CNc1ncc([N+](=O)[O-])c(NCC2CCC(CN)CC2)n1 (stereo unspecified)
3.16 µM	CNC(=O)c1cnc(N)c2c(-c3ccc(NC(=O)Nc4cccc(Cl)c4)cc3)csc12
> 10 µM	CCc1nc2c(c3cc(OC)c(OC)cc13)C(=O)NC2=O
> 10 µM	CC(C)(C)c1cc(NC(=O)Nc2cccc3ccccc23)n(-c2cccc(C(=O)NCC#N)c2)n1
> 7.94 µM	COc1cc(Nc2ncc(F)c(Nc3ccc4c(n3)NC(=O)C(C)(C)O4)n2)cc(OC)c1OC
> 10 µM	N[C@H](COc1cncc(/C=C/c2ccncc2)c1)Cc1ccccc1
> 10 µM	CC(C)Oc1nccn2c(-c3ccnc(NCC(C)(C)O)n3)c(-c3ccc(F)cc3F)nc12
5.01 µM	Cc1cccc(NC(=O)Nc2ccc(-c3csc4c(C#CCN5CCCC5)cnc(N)c34)cc2)c1
0.398 µM	N#CCOc1ccc(Nc2nc(Nc3cccc(S(N)(=O)=O)c3)ncc2Br)cc1
> 10 µM	CCc1nccn2c(-c3ccnc(NCC(C)(C)O)n3)c(-c3ccc(F)cc3F)nc12
> 10 µM	Cc1cccc(NC(=O)Nc2ccc(-c3cccc(C(N)=O)c3)cc2)c1
> 10 µM	Cc1cccc(NC(=O)Nc2ccc(-c3csc4c(-c5cnn(C[C@@H](C)O)c5)cnc(N)c34)cc2)c1
5.01 µM	Cc1ccc(-c2ccc(NC(=O)Nc3cccc(Br)c3)cc2)c2c(N)n[nH]c12
> 10 µM	Nc1ncc(-c2ccoc2)c2scc(-c3ccc(NC(=O)Nc4ccccc4F)cc3)c12

Ki	SMILES
3.98 µM	CCS(=O)(=O)c1ccc(-c2cncc3sc(C(N)=O)cc23)cc1
1.26 µM	Cc1n[nH]c2ccc(-c3cncc(OCC(CN)Cc4ccccc4)c3)cc12 (stereo unspecified)
0.316 µM	NCC(NC(=O)c1ccc(-c2ccncc2)cc1)c1ccccc1 (stereo unspecified)
> 10 µM	CO[C@@H](C(=O)N1Cc2[nH]nc(NC(=O)c3ccc(N4CCN(C)CC4)cc3)c2C1)c1ccccc1
> 10 µM	COCCO[C@H]1CC[C@H](n2nc(-c3ccc(Nc4nc5cc(C)cc(Cl)c5o4)cc3)c3c(N)ncnc32)CC1
> 10 µM	Nc1ncnc2c1c(I)nn2[C@@H]1O[C@H](CO)[C@@H](O)[C@H]1O
7.94 µM	CCCS(=O)(=O)Nc1ccc(-c2ccc3[nH]nc(NC(=O)CC)c3c2)cc1
> 10 µM	CC1(C)CC(=O)C2=C(C1)Nc1cc(Cl)ccc1S2
6.31 µM	COc1cc(/C=C(\C#N)c2nc3ccccc3[nH]2)c(Br)cc1O
6.31 µM	Nc1ncc(-c2ccoc2)c2scc(-c3ccc(NC(=O)Nc4cccc(F)c4)cc3)c12
> 10 µM	COc1cc(OC)c(Nc2ccc3nnc(-c4ccccc4)n3n2)cc1Cl
7.94 µM	c1ccc(CSc2nc(-c3ccncc3)n[nH]2)cc1
5.01 µM	Cc1cc(O)ccc1-n1c2cc(Cl)ccc2c(=O)c2c(N)nc(N)nc21
> 10 µM	O=c1cc(-c2ccncc2)nc(NC2CCCCC2)[nH]1
> 10 µM	O=C1CC(c2ccc(Cl)cc2Cl)Cc2[nH]c3cc(Cl)ccc3c(=O)c21 (stereo unspecified)
0.398 µM	O=C(N[C@H](CO)c1ccccc1)N1CC=C(c2c[nH]c3ncccc23)CC1
> 10 µM	CN(C)c1cc2sncc2cc1NC(=O)C(=O)O
